Laboratory results reported in patent US9296741B2, “Bromodomain inhibitors” (priority 2012, dated 2016).

Key:
[1] = molecular target: human BRD4 first bromodomain (BDI_K57-E168) (Homo sapiens (Human), UniProt O60885); assay: TR-FRET bromodomain binding assay, BRD4 first bromodomain
[2] = molecular target: human BRD4 second bromodomain (BDII_E352-M457) (Homo sapiens (Human), UniProt O60885); assay: TR-FRET bromodomain binding assay, BRD4 second bromodomain
[3] = test system: breast cancer cell line MX-1; assay: MX-1 cell line proliferation assay; type: cell-based, human; conditions: Homo sapiens, MX1, 72 h; MX-1 cells, 3-day proliferation, Cell Titer Glo; read-out: Cellular proliferation: EC50
[4] = Human liver microsome stability assay; type: in vitro ADME; conditions: both sexes, human, microsomes, pH 7.4
[5] = Rat liver microsome stability assay; type: in vitro ADME; conditions: rat liver microsomes (male Sprague-Dawley), 0.5 μM test compound, pH 7.4, 37° C.; for half-life at 0.5 μM: 0.25 mg/mL microsomal protein, read-out: Stability in rat liver microsomes (t1/2 in minutes); for Stability in rat liver microsomes (t1/2 in minutes): […] microsomal protein
[6] = Mouse liver microsome stability assay; type: in vitro ADME; conditions: male, CD1, mouse, microsomes, pH 7.4

Ki [1]	Ki [2]	EC50 [3]	half-life at 0.5 μM [4]	half-life at 0.5 μM [5]	half-life at 0.5 μM [6]	Stability in rat liver microsomes (t1/2 in minutes) [5]	SMILES
0.0012 µM	0.00075 µM	0.0459 µM	64 min	11 min	> 120 min		Cn1cc(-c2cc(NS(C)(=O)=O)cnc2Oc2ccccc2)c2cc[nH]c2c1=O [Example 23, N-[5-(6-methyl-7-oxo-6,7-dihydro-1H-pyrrolo[2,3-c]pyridin-4-yl)-6-phenoxypyridin-3-yl]methanesulfonamide]
0.0011 µM	0.0067 µM	0.0718 µM	> 120 min	26 min	> 120 min		Cn1cc(-c2cc(NS(C)(=O)=O)ccc2OC2CCOCC2)c2cc[nH]c2c1=O [Example 29, N-[3-(6-methyl-7-oxo-6,7-dihydro-1H-pyrrolo[2,3-c]pyridin-4-yl)-4-(tetrahydro-2H-pyran-4-yloxy)phenyl]methanesulfonamide]
0.0018 µM	0.0134 µM	0.0398 µM	56 min	> 120 min	19 min		Cn1cc(-c2cc(NS(C)(=O)=O)ccc2OC2CCOC2)c2cc[nH]c2c1=O (stereo not drawn) [Example 31, N-[3-(6-methyl-7-oxo-6,7-dihydro-1H-pyrrolo[2,3-c]pyridin-4-yl)-4-(tetrahydrofuran-3-yloxy)phenyl]methanesulfonamide]
0.0026 µM	0.0048 µM	0.0417 µM	> 120 min	> 120 min	46 min		Cn1cc(-c2cc(NS(C)(=O)=O)ccc2Oc2ccc(C#N)cc2)c2cc[nH]c2c1=O [Example 33, N-[4-(4-cyanophenoxy)-3-(6-methyl-7-oxo-6,7-dihydro-1H-pyrrolo[2,3-c]pyridin-4-yl)phenyl]methanesulfonamide]
0.0113 µM	0.0108 µM	0.0593 µM	88.9 min	54 min	3 min		CC(=O)Nc1ccc(Oc2ccc(F)cc2F)c(-c2cn(C)c(=O)c3[nH]ccc23)c1 [Example 37, N-[4-(2,4-difluorophenoxy)-3-(6-methyl-7-oxo-6,7-dihydro-1H-pyrrolo[2,3-c]pyridin-4-yl)phenyl]acetamide]
0.0028 µM	0.00051 µM	0.0298 µM	13.6 min		10 min	1 min	Cn1cc(-c2cc(CN3CCCS3(=O)=O)ccc2Oc2ccccc2)c2cc[nH]c2c1=O [Example 41, 4-{5-[(1,1-dioxido-1,2-thiazolidin-2-yl)methyl]-2-phenoxyphenyl}-6-methyl-1,6-dihydro-7H-pyrrolo[2,3-c]pyridin-7-one]
0.0546 µM	0.0934 µM	> 3 µM	> 120 min	> 120 min	> 120 min		Cn1cc(-c2cc(CNC(=O)CCC(=O)O)ccc2Oc2ccccc2)c2cc[nH]c2c1=O [Example 42, 4-{[3-(6-methyl-7-oxo-6,7-dihydro-1H-pyrrolo[2,3-c]pyridin-4-yl)-4-phenoxybenzyl]amino}-4-oxobutanoic acid]
0.0017 µM	0.0012 µM	0.0169 µM	34.9 min	2 min	5 min		Cn1cc(-c2cc(N3CCCS3(=O)=O)ccc2Oc2ccc(F)cc2F)c2cc[nH]c2c1=O [Example 43, 4-[2-(2,4-difluorophenoxy)-5-(1,1-dioxido-1,2-thiazolidin-2-yl)phenyl]-6-methyl-1,6-dihydro-7H-pyrrolo[2,3-c]pyridin-7-one]
0.286 µM	0.236 µM	0.828 µM	33.7 min	6 min	27 min		Cn1cc(-c2cc(CCO)ccc2OCc2ccccc2)c2cc[nH]c2c1=O [Example 44, 4-[2-(benzyloxy)-5-(2-hydroxyethyl)phenyl]-6-methyl-1,6-dihydro-7H-pyrrolo[2,3-c]pyridin-7-one]
0.235 µM	0.205 µM	1.1 µM	8 min	3 min	5 min		CN(C)C(=O)Cc1ccc(OCc2ccccc2)c(-c2cn(C)c(=O)c3[nH]ccc23)c1 [Example 47, 2-[4-(benzyloxy)-3-(6-methyl-7-oxo-6,7-dihydro-1H-pyrrolo[2,3-c]pyridin-4-yl)phenyl]-N,N-dimethylacetamide]
0.0215 µM	0.0081 µM	0.206 µM	35 min	88 min	46 min		Cn1cc(-c2cc(C(N)=O)ccc2Oc2ccc(F)cc2F)c2cc[nH]c2c1=O [Example 50, 4-(2,4-difluorophenoxy)-3-(6-methyl-7-oxo-6,7-dihydro-1H-pyrrolo[2,3-c]pyridin-4-yl)benzamide]
0.0097 µM	0.0161 µM	0.101 µM	6 min	63 min	> 120 min		Cn1cc(-c2cc(C(=O)NC3CCOC3)ccc2Oc2ccc(F)cc2F)c2cc[nH]c2c1=O (stereo not drawn) [Example 51, 4-(2,4-difluorophenoxy)-3-(6-methyl-7-oxo-6,7-dihydro-1H-pyrrolo[2,3-c]pyridin-4-yl)-N-(tetrahydrofuran-3-yl)benzamide]
0.0951 µM	0.0375 µM	0.266 µM	3 min	30 min	2 min		Cn1cc(-c2cc(C(=O)N3CCC(NC(=O)OC(C)(C)C)C3)ccc2Oc2ccc(F)cc2F)c2cc[nH]c2c1=O (stereo not drawn) [Example 54, tert-butyl {1-[4-(2,4-difluorophenoxy)-3-(6-methyl-7-oxo-6,7-dihydro-1H-pyrrolo[2,3-c]pyridin-4-yl)benzoyl]pyrrolidin-3-yl}carbamate]
0.00088 µM	0.002 µM	0.0138 µM	13 min	6 min	5 min		Cn1cc(-c2cc(NS(C)(=O)=O)ccc2OC2CCCCC2)c2cc[nH]c2c1=O [Example 57, N-[4-(cyclohexyloxy)-3-(6-methyl-7-oxo-6,7-dihydro-1H-pyrrolo[2,3-c]pyridin-4-yl)phenyl]methanesulfonamide]
0.0021 µM	0.0081 µM	0.0451 µM	> 120 min		4 min	1 min	Cn1cc(-c2cc(NS(C)(=O)=O)ccc2OC2CCCC2)c2cc[nH]c2c1=O [Example 58, N-[4-(cyclopentyloxy)-3-(6-methyl-7-oxo-6,7-dihydro-1H-pyrrolo[2,3-c]pyridin-4-yl)phenyl]methanesulfonamide]
0.00075 µM	0.0066 µM	0.0142 µM	68 min	64 min	34 min		Cn1cc(-c2cc(NS(C)(=O)=O)ccc2OC2CCCOC2)c2cc[nH]c2c1=O (stereo not drawn) [Example 60, N-[3-(6-methyl-7-oxo-6,7-dihydro-1H-pyrrolo[2,3-c]pyridin-4-yl)-4-(tetrahydro-2H-pyran-3-yloxy)phenyl]methanesulfonamide]
0.018 µM	0.0427 µM	0.105 µM	39 min	13 min	18 min		Cn1cc(-c2cc(NS(C)(=O)=O)ccc2OCc2ccccc2)c2cc[nH]c2c1=O [Example 63, N-[4-(benzyloxy)-3-(6-methyl-7-oxo-6,7-dihydro-1H-pyrrolo[2,3-c]pyridin-4-yl)phenyl]methanesulfonamide]
0.0561 µM	0.0938 µM	0.341 µM	6 min	5 min	6 min		COC(=O)c1cc2c(-c3ccccc3Oc3ccccc3)cn(C)c(=O)c2[nH]1 [Example 67, methyl 6-methyl-7-oxo-4-(2-phenoxyphenyl)-6,7-dihydro-1H-pyrrolo[2,3-c]pyridine-2-carboxylate]
0.039 µM	0.0123 µM	0.14 µM	6 min	2 min	3 min		CCOC(=O)c1cc2c(-c3cc(N)ccc3Oc3ccccc3)cn(C)c(=O)c2[nH]1 [Example 69, ethyl 4-(5-amino-2-phenoxyphenyl)-6-methyl-7-oxo-6,7-dihydro-1H-pyrrolo[2,3-c]pyridine-2-carboxylate]
0.0118 µM	0.0468 µM	> 3 µM	41 min	9 min	68 min		Cn1cc(-c2cc(NS(C)(=O)=O)ccc2Oc2ccccc2)c2cc(C(=O)O)[nH]c2c1=O [Example 70, 6-methyl-4-{5-[(methylsulfonyl)amino]-2-phenoxyphenyl}-7-oxo-6,7-dihydro-1H-pyrrolo[2,3-c]pyridine-2-carboxylic acid]
0.00081 µM	0.0012 µM	0.0175 µM	2 min		6 min	1 min	CCOC(=O)c1cc2c(-c3cc(NS(C)(=O)=O)ccc3Oc3ccccc3)cn(C)c(=O)c2[nH]1 [Example 71, ethyl 6-methyl-4-{5-[(methylsulfonyl)amino]-2-phenoxyphenyl}-7-oxo-6,7-dihydro-1H-pyrrolo[2,3-c]pyridine-2-carboxylate]
